Each structure is given as a SMILES string.

For test [1], the target named is recombinant poly(ADP-ribose) polymerase 2 (PARP2) (Homo sapiens, UniProt Q9UGN5). Put plainly: biochemical. Particulars: inhibition of PARP2 enzyme activity, chemiluminescence.
For test [2], the target named is recombinant poly(ADP-ribose) polymerase 1 (PARP1) (Homo sapiens, UniProt P09874). Put plainly: biochemical. Particulars: inhibition of PARP1 enzyme activity, chemiluminescence.
In another test the test system is MDA-MB-436 cells. Nature of the test: Growth inhibition assay against BRCA mutant human breast cancer MDA-MB-436 cell line (CCK-8, 7 days). The format is cell-based.

Sequence of recombinant poly(ADP-ribose) polymerase 1 (PARP1) (P09874 whole entry): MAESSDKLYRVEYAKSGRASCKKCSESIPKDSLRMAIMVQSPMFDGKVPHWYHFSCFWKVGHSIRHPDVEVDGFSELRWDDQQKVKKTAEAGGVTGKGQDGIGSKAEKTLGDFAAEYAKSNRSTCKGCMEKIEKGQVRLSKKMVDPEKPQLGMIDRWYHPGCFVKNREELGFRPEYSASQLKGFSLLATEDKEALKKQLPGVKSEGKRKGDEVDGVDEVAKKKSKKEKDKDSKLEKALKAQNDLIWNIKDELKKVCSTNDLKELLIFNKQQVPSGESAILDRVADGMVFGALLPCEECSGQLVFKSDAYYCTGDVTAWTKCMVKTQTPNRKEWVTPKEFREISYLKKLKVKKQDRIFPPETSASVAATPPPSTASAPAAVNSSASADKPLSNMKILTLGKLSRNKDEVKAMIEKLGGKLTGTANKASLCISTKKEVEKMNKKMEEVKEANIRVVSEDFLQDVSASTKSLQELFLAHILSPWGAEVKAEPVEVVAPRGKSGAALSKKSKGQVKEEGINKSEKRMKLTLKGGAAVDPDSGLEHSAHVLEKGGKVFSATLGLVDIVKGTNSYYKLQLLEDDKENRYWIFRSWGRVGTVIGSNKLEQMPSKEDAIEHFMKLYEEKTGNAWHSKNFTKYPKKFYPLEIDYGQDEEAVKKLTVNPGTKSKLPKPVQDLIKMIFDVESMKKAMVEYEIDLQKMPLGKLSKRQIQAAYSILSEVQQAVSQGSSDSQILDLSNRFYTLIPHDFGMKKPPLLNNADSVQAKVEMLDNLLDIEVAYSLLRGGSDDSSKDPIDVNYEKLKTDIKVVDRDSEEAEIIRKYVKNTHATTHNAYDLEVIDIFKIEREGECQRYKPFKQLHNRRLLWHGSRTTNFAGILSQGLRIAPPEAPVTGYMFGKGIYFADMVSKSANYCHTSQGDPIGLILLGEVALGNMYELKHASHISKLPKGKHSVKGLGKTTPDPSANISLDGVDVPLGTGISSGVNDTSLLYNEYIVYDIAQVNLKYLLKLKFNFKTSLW
Sequence of recombinant poly(ADP-ribose) polymerase 2 (PARP2) (Q9UGN5 whole entry): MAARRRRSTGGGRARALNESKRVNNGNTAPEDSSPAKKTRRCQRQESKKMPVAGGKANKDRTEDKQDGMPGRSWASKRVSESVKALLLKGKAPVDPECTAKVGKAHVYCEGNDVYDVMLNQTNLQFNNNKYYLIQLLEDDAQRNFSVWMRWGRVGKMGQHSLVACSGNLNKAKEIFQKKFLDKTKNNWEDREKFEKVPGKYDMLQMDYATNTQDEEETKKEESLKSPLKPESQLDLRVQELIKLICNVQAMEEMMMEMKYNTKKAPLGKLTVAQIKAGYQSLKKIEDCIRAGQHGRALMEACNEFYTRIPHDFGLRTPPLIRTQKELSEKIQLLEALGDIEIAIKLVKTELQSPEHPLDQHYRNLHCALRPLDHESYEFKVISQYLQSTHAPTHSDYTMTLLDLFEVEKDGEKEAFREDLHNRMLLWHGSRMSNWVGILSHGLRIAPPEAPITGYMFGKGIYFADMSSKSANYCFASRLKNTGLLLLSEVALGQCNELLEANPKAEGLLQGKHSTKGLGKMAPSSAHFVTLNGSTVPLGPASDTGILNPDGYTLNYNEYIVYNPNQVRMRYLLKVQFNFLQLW

In the case of `CNC(=O)c1ccc(N2CCN(Cc3ccc4c5c(c(=O)[nH]c4c3)COC5)CC2)c(F)n1` [Example 2, 7-((4-(2-fluoro-6-(methylcarbamoyl)pyridin-3-yl)piperazin-1-yl)methyl)-3,5-dihydrofuro[3,4-c]quinolin-4(1H)-one], the concentration for half-maximal inhibition (IC50) (usually the concentration that inhibits the measured activity by half) in test [1] worked out at 128 nM; in test [2] it was 1.91 nM; in the test on MDA-MB-436 cells, 2.65 nM.
In the same order, the values of `CNC(=O)c1ccc(N2CCN(Cc3ccc4c5c(c(=O)[nH]c4c3)COC5)CC2)c(Cl)n1` [Example 3, 7-((4-(2-chloro-6-(methylcarbamoyl)pyridin-3-yl)piperazin-1-yl)methyl)-3,5-dihydrofuro[3,4-c]quinolin-4(1H)-one] are 467 nM, 1.33 nM and 5.01 nM.
On to `CNC(=O)c1ccc(N2CCN(Cc3ccc4c5c(c(=O)[nH]c4c3)COC5)CC2)c(C)n1` [Example 4, 7-((4-(2-methyl-6-(methylcarbamoyl)pyridin-3-yl)piperazin-1-yl)methyl)-3,5-dihydrofuro[3,4-c]quinolin-4(1H)-one], for which the half-maximal inhibitory concentration (IC50) in test [1] came to 188 nM; in test [2], 1.59 nM; in the test on MDA-MB-436 cells, 4.22 nM.
In the same order, the values of `CNC(=O)c1ccc(N2CCN(Cc3ccc4c(c3)[nH]c(=O)c3cccn34)CC2)c(C)n1` [Example 24, 7-((4-(2-methyl-6-(methylcarbamoyl)pyridin-3-yl)piperazin-1-yl)methyl)pyrrolo[1,2-a]quinoxalin-4(5H)-one] are 31.5 nM, 0.83 nM and 0.78 nM.
For the compound `CNC(=O)c1ccc(N2CCN(Cc3ccc4c(c3)[nH]c(=O)c3ccnn34)CC2)c(C)n1` [Example 28, 7-((4-(2-methyl-6-(methylcarbamoyl)pyridin-3-yl)piperazin-1-yl)methyl)pyrazolo[1,5-a]quinoxalin-4(5H)-one], the figures for the IC50 (in test [1]; in test [2]; in the test on MDA-MB-436 cells) were more than 3000 nM, 0.77 nM and 0.98 nM, respectively.
The corresponding values for `CNC(=O)c1ccc(N2CCN(Cc3ccc4c(c3)[nH]c(=O)c3cccn34)CC2)c(Cl)n1` [Example 35, 7-((4-(2-chloro-6-(methylcarbamoyl)pyridin-3-yl)piperazin-1-yl)methyl)pyrrolo[1,2-a]quinoxalin-4(5H)-one] are 26.3 nM, 0.81 nM and 0.39 nM.
In the same order, the values of `CNC(=O)c1ccc(N2CCN(Cc3ccc4c(c3)[nH]c(=O)c3ccnn34)CC2)c(F)n1` [Example 36, 7-((4-(2-fluoro-6-(methylcarbamoyl)pyridin-3-yl)piperazin-1-yl)methyl)pyrazolo[1,5-a]quinoxalin-4(5H)-one] are 41.4 nM, 0.44 nM and 1.11 nM.
In the same order, the values of `CNC(=O)c1ccc(N2CCN(Cc3ccc4c(c3)[nH]c(=O)c3ccnn34)CC2)c(Cl)n1` [Example 37, 7-((4-(2-chloro-6-(methylcarbamoyl)pyridin-3-yl)piperazin-1-yl)methyl)pyrazolo[1,5-a]quinoxalin-4(5H)-one] are 46.5 nM, 0.47 nM and 1.07 nM.
`CNC(=O)c1ccc(N2CCN(Cc3ccc4c(c3)[nH]c(=O)c3cncn34)CC2)c(F)n1` [Example 38, 7-((4-(2-fluoro-6-(methylcarbamoyl)pyridin-3-yl)piperazin-1-yl)methyl)imidazo[1,5-a]quinoxalin-4(5H)-one]: the IC50 amounted to 59.9 nM in test [1], 0.3 nM in test [2] and 4.06 nM in the test on MDA-MB-436 cells.
In the same order, the values of `CNC(=O)c1ccc(N2CCN(Cc3cc(F)c4c(c3)[nH]c(=O)c3cccn34)CC2)c(C)n1` [Example 40, 7-((4-(2-methyl-6-(methylcarbamoyl)pyridin-3-yl)piperazin-1-yl)methyl)-9-fluoropyrrolo[1,2-a]quinoxalin-4(5H)-one] are 38.7 nM, 1.54 nM and 1.15 nM.
In the same order, the values of `CNC(=O)c1ccc(N2CCN(Cc3cc(F)c4c(c3)[nH]c(=O)c3ccnn34)CC2)c(F)n1` [Example 44, 7-((4-(2-fluoro-6-(methylcarbamoyl)pyridin-3-yl)piperazin-1-yl)methyl)-9-fluoropyrazolo[1,5-a]quinoxalin-4(5H)-one] are 318 nM, 1.76 nM and 2.17 nM.
The corresponding values for `CNC(=O)c1ccc(N2CCN(Cc3ccc4c(c3)[nH]c(=O)c3ccc(C)n34)CC2)c(C)n1` [Example 54, 7-((4-(2-methyl-6-(methylcarbamoyl)pyridin-3-yl)piperazin-1-yl)methyl)-1-methylpyrrolo[1,2-a]quinoxalin-4(5H)-one] are 12.7 nM, 1.32 nM and 1.85 nM.
In the case of `CNC(=O)c1ccc(N2CCN(Cc3ccc4c(c3)[nH]c(=O)c3c(C)ccn34)CC2)c(C)n1` [Example 56, 7-((4-(2-methyl-6-(methylcarbamoyl)pyridin-3-yl)piperazin-1-yl)methyl)-3-methylpyrrolo[1,2-a]quinoxalin-4(5H)-one], the IC50 in test [1] was 37.9 nM; in test [2], 2.32 nM; in the test on MDA-MB-436 cells it was 0.65 nM.
In the same order, the values of `CNC(=O)c1ccc(N2CCN(Cc3ccc4c(c3)[nH]c(=O)c3cc(C)nn34)CC2)c(C)n1` [Example 57, 7-((4-(2-methyl-6-(methylcarbamoyl)pyridin-3-yl)piperazin-1-yl)methyl)-2-methylpyrazolo[1,5-a]quinoxalin-4(5H)-one] are 67.9 nM, 1.77 nM and 1.43 nM.
The corresponding values for `Cc1nc(C(=O)NC2CC2)ccc1N1CCN(Cc2ccc3c(c2)[nH]c(=O)c2cccn23)CC1` [Example 59, 7-((4-(2-methyl-6-(cyclopropylcarbamoyl)pyridin-3-yl)piperazin-1-yl)methyl)pyrrolo[1,2-a]quinoxalin-4(5H)-one] are 21.9 nM, 1.39 nM and 0.99 nM.
The corresponding values for `Cc1nc(C(=O)NC2CC2)ccc1N1CCN(Cc2ccc3c(c2)[nH]c(=O)c2ccnn23)CC1` [Example 62, 7-((4-(2-methyl-6-(cyclopropylcarbamoyl)pyridin-3-yl)piperazin-1-yl)methyl)pyrazolo[1,5-a]quinoxalin-4(5H)-one] are 150 nM, 0.29 nM and 3.42 nM.
As to `Cc1nc(C(=O)NC2CC2)ccc1N1CCN(Cc2cc(F)c3c(c2)[nH]c(=O)c2cccn23)CC1` [Example 66, 7-((4-(2-methyl-6-(cyclopropylcarbamoyl)pyridin-3-yl)piperazin-1-yl)methyl)-9-fluoropyrrolo[1,2-a]quinoxalin-4(5H)-one], the IC50 in test [1] worked out at 66.1 nM; in test [2], 1.63 nM; with MDA-MB-436 cells it was 1.66 nM.
The corresponding values for `O=C(NC1CC1)c1ccc(N2CCN(Cc3cc(F)c4c(c3)[nH]c(=O)c3cccn34)CC2)c(F)n1` [Example 67, 7-((4-(2-fluoro-6-(cyclopropylcarbamoyl)pyridin-3-yl)piperazin-1-yl)methyl)-9-fluoropyrrolo[1,2-a]quinoxalin-4(5H)-one] are 48.2 nM, 2.02 nM and 2.11 nM.
In the same order, the values of `O=C(NC1CC1)c1ccc(N2CCN(Cc3cc(F)c4c(c3)[nH]c(=O)c3cccn34)CC2)c(Cl)n1` [Example 68, 7-((4-(2-chloro-6-(cyclopropylcarbamoyl)pyridin-3-yl)piperazin-1-yl)methyl)-9-fluoropyrrolo[1,2-a]quinoxalin-4(5H)-one] are 90.1 nM, 1.61 nM and 2.92 nM.
The corresponding values for `CNC(=O)c1ccc(N2CCN(Cc3ccc4c(c3)[nH]c(=O)c3cc(C)nn34)CC2)c(F)n1` [Example 69, 7-((4-(2-fluoro-6-(methylcarbamoyl)pyridin-3-yl)piperazin-1-yl)methyl)-2-methylpyrazolo[1,5-a]quinoxalin-4(5H)-one] are 49.9 nM, 2.32 nM and 1.08 nM.
For the compound `CNC(=O)c1ccc(N2CCN(Cc3ccc4c(c3)[nH]c(=O)c3cc(C)nn34)CC2)c(Cl)n1` [Example 70, 7-((4-(2-chloro-6-(methylcarbamoyl)pyridin-3-yl)piperazin-1-yl)methyl)-2-methylpyrazolo[1,5-a]quinoxalin-4(5H)-one], the IC50 in test [1] stood at 103 nM; in test [2], 1.37 nM; in the test on MDA-MB-436 cells it was 1.41 nM.
The corresponding values for `CNC(=O)c1ccc(N2CCN(Cc3ccc4c(c3)[nH]c(=O)c3c(C)cnn34)CC2)c(F)n1` [Example 71, 7-((4-(2-fluoro-6-(methylcarbamoyl)pyridin-3-yl)piperazin-1-yl)methyl)-3-methylpyrazolo[1,5-a]quinoxalin-4(5H)-one] are 66.4 nM, 1.35 nM and 0.77 nM.
The corresponding values for `CNC(=O)c1ccc(N2CCN(Cc3ccc4c(c3)[nH]c(=O)c3c(C)cnn34)CC2)c(Cl)n1` [Example 72, 7-((4-(2-chloro-6-(methylcarbamoyl)pyridin-3-yl)piperazin-1-yl)methyl)-3-methylpyrazolo[1,5-a]quinoxalin-4(5H)-one] are 110 nM, 1.12 nM and 2.09 nM.
As to `CNC(=O)c1ccc(N2CCN(Cc3cc(F)c4c(c3)[nH]c(=O)n3cccc43)CC2)c(C)n1` [Example 131, 8-((4-(2-methyl-6-(methylcarbamoyl)pyridin-3-yl)piperazin-1-yl)methyl)-10-fluoropyrrolo[1,2-c]quinazolin-5(6H)-one], the results for the IC50 in test [1] and in test [2] were 111 nM and 0.78 nM, respectively.
The corresponding values for `CNC(=O)c1ccc(N2CCN(Cc3ccc4c([nH]c(=O)c5ccnn54)c3C)CC2)c(F)n1` [Example 133, 7-((4-(2-fluoro-6-(methylcarbamoyl)pyridin-3-yl)piperazin-1-yl)methyl)-6-methylpyrazolo[1,5-a]quinoxalin-4(5H)-one] are 222 nM and 1.5 nM.

The values above are taken from patent publication US20240368169A1 (priority 2021, published 2024).
